Here are results for two molecules from patent publication US20100093751A1, “Indolizineacetic Acids and Their Therapeutic Use as Ligands of the CRTH2 Receptor” (priority 2006, published 2010).

This test addresses T1, CRTH2 receptor (Homo sapiens, UniProt Q9Y5Y4).
T1 construct: expressed in transfected cells; host or cells: HEK (human embryonic kidney) cells, membranes
T1 sequence (Q9Y5Y4 1-395): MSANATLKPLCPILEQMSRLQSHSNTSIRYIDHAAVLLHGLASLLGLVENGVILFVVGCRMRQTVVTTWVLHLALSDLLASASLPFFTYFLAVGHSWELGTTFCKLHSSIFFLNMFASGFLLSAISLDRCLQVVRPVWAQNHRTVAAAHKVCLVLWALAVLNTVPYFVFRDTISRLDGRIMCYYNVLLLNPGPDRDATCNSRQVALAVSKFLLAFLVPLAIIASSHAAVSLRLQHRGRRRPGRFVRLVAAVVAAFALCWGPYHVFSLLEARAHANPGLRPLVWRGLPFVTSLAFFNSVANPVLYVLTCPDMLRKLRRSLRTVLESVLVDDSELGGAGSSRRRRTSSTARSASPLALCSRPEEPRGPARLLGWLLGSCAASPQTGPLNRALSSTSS
Nature of the test: CRTH2 radioligand binding assay ([3H]-PGD2 displacement, SPA). The conditions noted are these: HEK cell membranes expressing the CRTH2 receptor, 1 nM [3H]-PGD2; Ki from IC50 by Cheng-Prusoff equation. As to the method: Compounds of the invention were tested using the following biological test method to determine their ability to displace PGD2 from the CRTH2 receptor.
Radioligand Binding Assay
The receptor binding assay is performed in a final volume of 200 μL binding buffer [10 mM BES (pH 7.4), 1 mM EDTA, 10 mM manganese chloride, 0.01% BSA] and 1 nM [^3H]-PGD2 (Amersham Biosciences UK Ltd). Ligands are added in assay buffer containing a constant amount of DMSO (1% by volume). Total binding is determined using 1% by volume of DMSO in assay buffer and non-specific binding is determined using 10 μM of unlabeled PGD2 (Sigma). Human embryonic kidney (HEK) cell membranes (3.5 μg) expressing the CRTH2 receptor are incubated with 1.5 mg wheatgerm agglutinin SPA beads and 1 nM [^3H]-PGD2 (Amersham Biosciences UK Ltd) and the mixture incubated for 3 hours at room temperature. Bound [^3H]-PGD2 is detected using a Microbeta TRILUX liquid scintillation counter (Perkin Elmer). Compound IC50 value is determined using a 6-point dose response curve in duplicate with a semi-log compound dilution series. IC50 calculations are performed using Excel and XLfit (Microsoft), and this value is used to determine a Ki value for the test compound using the Cheng-Prusoff equation.

As usually defined, the Ki is a dissociation constant, usually derived from enzyme kinetics or from competition with a known ligand. In turn, `Cc1c(CC(=O)O)c2ccc(F)cn2c1Sc1ccc(S(=O)(=O)N2CCOCC2)cc1F` [Example 1, {6-fluoro-3-[2-fluoro-4-(morpholine-4-sulfonyl)phenylsulfanyl]-2-methylindolizin-1-yl}acetic acid] gave a Ki of 0.5 nM. That is a sub-nanomolar value.
Next, `Cc1c(CC(=O)O)c2ccc(F)cn2c1Sc1ccc(-c2cnn(C)c2)cc1` [Example 4, {6-fluoro-2-methyl-3-[4-(1-methyl-1H-pyrazol-4-yl)phenylsulfanyl]indolizin-1-yl}acetic acid]: 19 nM.
